# Measurements taken from patent US11571404B2, “Compositions and methods for the treatment of liver diseases and disorders associated with one or both of hyperammonemia or muscle wasting” (priority 2017, dated 2023).
# Tests used:
# [1] = tested on: primary human myotubes; test: TNF induced myotube atrophy, MYOSCREEN platform (Example 10); format: cell-based; design: Myotube Area mean: unit not given here; conditions: for Fusion Index mean / Myotube Area mean: TNFalpha 10 ng/mL, N=3
# Experimental: Methods: Experiment was performed using the […] platform (CYTOO, France). Briefly, […] is a proprietary technology based on micropatterning and defined microenvironments that establish highly mature primary human myotubes with substantial striation and low morphological variability. Primary cells derived from skeletal muscle of healthy human donors are differentiated to form myotubes (multinucleated syncytia) that are highly reminiscent of human muscle tissue. […] is a fully automated platform that interrogates multiple phenotypes relevant for muscle physiology including myotube area, fusion index, and total nuclei. On Day 0 expanded primary myoblasts from a healthy human donor were seeded at 10,000 cells per well for 24 hour at 37 deg C. […] Importantly, treatment groups were prepared in PBS and final concentration in all wells, including controls, was 10% PBS. On Day 2 cells were switched to Cirrhosis Media based on DMEM comprising 0.1% horse serum and 0.5× amino acids at ratios of plasma of cirrhosis (Kakazu et al., 2013) containing atrophy inducer TNFalpha (10 ng/mL) and again treated according to Day 1 and Table 16. On Day 6 cells were fixed with 5% Formalin for 30 minutes at room temperature. Fixed cells were processed for immunostaining with primary antibody against Troponin T to stain myotubes and Hoeschst dye for nuclei. Image acquisition was done at 10× magnification using Operetta High Content Imaging System and analysis was performed using a proprietary and dedicated algorithm on the Acapella High Content Imaging System (Perkin Elmer, CYTOO).
# [2] = tested on: C3A derivative clone of the HepG2 Hepatocellular Carcinoma cell line; test: Hepatic albumin production in cirrhosis media, ELISA normalized to nuclei (Example 9); format: cell-based, human; conditions: for Albumin/Nuclei (mean): 48 hours
# Experimental: Media composed of amino acids consistent with profiles of cirrhotic individuals was tested for effect on production of albumin. Effects of […], components and comparator compositions on albumin production were determined. Methods: The ability of […] to increase hepatocyte albumin production was assessed using the C3A derivative clone of the HepG2 Hepatocellular Carcinoma cell line (ATCC, CRL-10741). 2.0e4 cells per well were seeded on day 0 in a 96-well microplate (Corning; 3903) in Dulbecco's Modified Eagle Medium (DMEM, Corning) supplemented with 10% fetal bovine serum (Corning) and 0.2% Primocin (InVivoGen, San Diego, Calif.) and incubated for 24 hours at 37° C., 5% CO2. […] Cells were cultured for 48 hours at 37° C., 5% CO2, media was collected, cells were washed 1× in PBS, fixed in 4% paraformaldehyde, washed 2× in PBS, nuclei were stained with Hoechst 33342 according to manufacturer's instructions (Life Technologies, H3570) and then washed 2× in PBS. Media albumin levels were assessed by R&D Systems's DuoSet ELISA Development System for Human Serum Albumin (R&D Systems, DY1455) and nuclei were counted using Molecular Devices Image Express High Content Screening platform and pre-installed nuclei counting analysis pipeline. Albumin levels were normalized to total nuclei in order to derive a per cell albumin production ratio.
# [3] = dose 5X of concentration in cirrhosis media
# [4] = dose 10x of concentration in cirrhosis media
# [5] = dose 20X of concentration in cirrhosis media
# [6] = dose 30X of concentration in cirrhosis media
smiles,measurement,setting,value
"CC(C)C[C@H](N)C(=O)O [L, L-leucine]",Effect on Atrophy,"[1]; TNF induced myotube atrophy, overall call across doses",no effect
same,Fusion Index mean,[1]; [3],0.087
same,Myotube Area mean,[1]; [3],4499.140
same,Fusion Index mean,[1]; [4],0.094
same,Myotube Area mean,[1]; [4],4480.850
same,Fusion Index mean,[1]; [5],0.091
same,Myotube Area mean,[1]; [5],4679.729
same,Fusion Index mean,[1]; [6],0.092
same,Myotube Area mean,[1]; [6],4579.231
same,Albumin/Nuclei (mean),[2]; Dose 5X of basal media concentrations,−0.087
same,Albumin/Nuclei (mean),[2]; Dose 10X of basal media concentrations,−0.116
same,Albumin/Nuclei (mean),[2]; Dose 20X of basal media concentrations,−0.219
same,Albumin/Nuclei (mean),[2]; Dose 40X of basal media concentrations,0.148
same,Effect on Albumin,[2]; over the dose curve 5X-40X,No Effect
